We go through 21 compounds from patent publication US4192871A, “Chemical compounds” (Glaxo Laboratories Limited, priority 1976, dated 1980).

Series [1] in a line: dissolution of the 11β-aminoester salts in aqueous acid (Table 5 and Examples 101, 225-229). It counts as physicochemical. The procedure: (§1) A solution of the above free base (492 mg; 1 mmole) in ethanol (10 ml) was treated with a solution (10 ml) of M/10 citric acid in ethanol water (9:1) and the mixture evaporated in vacuo at low temperature to afford a froth.
(§2) Table 5 summarises the properties and preparation of salts of the invention by one of the following methods:
(§3) A. The 11β-aminoester (1 part) was added to a solution of the acid (1 molar part) in water and the mixture stirred or shaken until a clear solution was obtained. The solution was made up with water to the weight indicated, filtered through a membrane and the pH determined.
(§4) B. The 11β-aminoester (1 part) was added to a solution of the acid (1 molar part) in water and the mixture stirred or shaken. As free base remained undissolved, further acid was added and the mixture agitated again. The solution was made up with water to the weight indicated and any material which then remained undissolved was collected in a weighed funnel and the weight of free base dissolved calculated and the pH of the solution measured.
(§5) C. A mixture of the 11β-aminoester (1 part), a 0.1 M solution of the acid (1 molar part) and ethanol was evaporated in vacuo and dried to constant weight. The residue was dissolved in a little water and any material which then remained undissolved collected in a weighed funnel and the weight of free base dissolved calculated. The solution was made up with water to the weight indicated and its pH measured.
(§6) D. The 11β-aminoester (1 part) was added to a solution of the acid (1 molar part) in water and the mixture stirred or shaken. The solution was made up with water to the weight indicated. The material remaining undissolved was collected in a weighed funnel and the weight of free base dissolved calculated and the pH of the solution measured.
(§7) E. As in method C except that further acid was added to the residue after addition of the small amount of water.
The solid citric acid used was as its monohydrate.
(§8) Sodium iodide (0.250 g) and diethylamine (0.5 ml) were added to a solution of 11β-chloroacetoxy-2β-ethoxy-3α-hydroxy-D-homo-5α-pregnan-20-one (0.250 g) in acetone (10 ml) and the mixture was left at room temperature for 3 days during which time a white solid precipated. Water was added and the yellow solution was concentrated in vacuo whereupon crystallisation occurred. The needles were filtered off and washed well with acetone/water yielding the title compound (0.201 g), m.p. 160°-73°, [α]D +60.8°. The above base (0.101 g) was stirred with citric acid monohydrate (0.042 g) in water (9.5 ml) for 21 hours. The solution was made up to 10.1 g by weight. The solid remaining out of solution was filtered off, dried and weighed. The solution was passed through a millipore filter giving an aqueous solution of the title compound, concentration 9.75 mg/ml, pH 3.66.
The above base (0.096 g) was stirred in a solution of citric acid monohydrate (0.038 g) in water (8.5 ml) for 20 hours. A large proportion of the steroid remained out of solution. More citric acid (0.038 g) was added and the mixture stirred for a further 6 hours. The solution was made up to 9.6 g by weight and the solid remaining out of solution was filtered off, dried and weighed. The solution was passed through a millipore filter giving an aqueous solution of the title compound, concentration 9.5 mg/ml, pH 2.85.
To a solution of citric acid monohydrate (52.5 mg) in water (2 ml) was added the above free base (115 mg). More water (8 ml) was added and the mixture was stirred for 72 hrs. A small amount of steroid remained out of solution and more citric acid (52.5 mg) was added. Within 5 mins. a clear solution was obtained which was made up to 11.5 g with water and filtered through a millipore filter yielding an aqueous solution of the title citrate, concentration 10 mg/ml, pH 3.0.
The above free base (112 mg) was added to a solution of citric acid monohydrate (52.5 mg) in water (2 ml). More water (8 ml) was added and the mixture was swirled from time to time. […]

A short description of a further series: pH of the salt solutions. It counts as physicochemical. The following applies: aqueous solution of the salt, Table 5. The procedure: as §1, §2, §3, §4, §5, §6, §7
11β-N,N-Diethylaminoacetoxy-2β-ethoxy-3α-hydroxy-5α-pregnan-20-one (1.45 g) was agitated with citric acid monohydrate (621 mg) in 0.9% w/v sodium chloride solution (steriflex^(R)) (130 ml.) at 20° for 16.5 hours. The resulting solution was stirred at 21° and N/5 sodium hydroxide solution in steriflex^(R) (10.5 ml) was added dropwise during 30 minutes, raising the pH from 3.63 to 4.52. The solution was diluted to 162.5 g so that the concentration of steroid was 9 mg/ml. The solution of the citrate was filtered through a membrane and finally filtered into 8 sterile ampoules.
11β-(N-Butyl-N-ethylaminoacetoxy)-3α-hydroxy-5α-pregnan-20-one (1.80 g) was agitated with citric acid monohydrate (793 mg) in 0.9% w/v sodium chloride solution (steriflex^(R)) (160 ml) at 20° for 19.5 hours. The resulting solution was slightly cloudy. This solution was stirred at 21° and N/5 sodium hydroxide solution in steriflex^(R) (5.8 ml) was added dropwise during 15 minutes, raising the pH from 3.62 to 4.00. The solution was diluted to 201.2 g so that the concentration of steroid was 9 mg/ml. The cloudiness was removed by filtration through a membrane and the clear solution of the citrate was filtered into 8 sterile ampoules.
as §8, with “3.66. […]” for “3.66.”

Where [2] appears, read: method B: further acid added, undissolved material weighed, WT. of solution 10 g, except Ex. 130 and 141: 9.2, 142: 9.23, 143, 144, 189 and 199: 9.8, 149: 10.6, 153: 7.9, 162 and 188: 9.5, 163: 68, 166: 10.4, 168: 10.7, 169: 10.9, 183: 8.05, 184 and 201: 9.83, 185: 7.1, 186: 9.3, 192: 10.07, 193: 6.4, 195: 6.8, 196: 7, 197: 7.2, 200: 10.1, 206: 15 g.
[3] abbreviates: method C: ethanol evaporated, residue in water, undissolved material weighed, WT. of solution Ex. 118: 10, 120: 10.4, 148: 9.54, 152: 5.6, 154: 9.1, 155: 8.77, 156: 9.06, 157: 9.5, 158: 9.38, 159: 9.17, 179: 9.65, 180: 11.7, 182: 4.9, 202: 12.05, 213: 12, 214: 11.5, 215: 11.1, 216: 11.6, 217: 12.1 g.
[4] abbreviates: method E: as C with further acid, WT. of solution Ex. 160: 6.12, 161: 7.8, 203: 12.7, 212: 12.125, 220: 10 g.
Setting [5] is: method A: clear solution, 1 molar part acid, made up with water to WT. of solution 10 g, except Ex. 121 and 150: 12, 123: 12.3, 124: 7.5, 129: 10.3, 135 and 139: 8.95, 164: 10.35, 170: 10.4, 181: 10.04, 187: 9.5, 210: 10.2, 221: 15 g.
The mark [6] stands for this setting: method D: 1 molar part acid, undissolved material weighed, WT. of solution 10 g, except Ex. 136: 8.95, 140: 9.52, 165 and 167: 10.1, 190 and 198: 9.8, 191: 8.9, 194: 6.6, 204: 10.09, 219: 10.6 g.

`CC(=O)[C@H]1CC[C@H]2[C@@H]3CC[C@H]4C[C@H](O)CC[C@]4(C)[C@H]3[C@@H](OC(=O)CN(C(C)C)C(C)C)C[C@]12C` [Example 153]: the Dissolved aminoester in series [1] (setting [2]) is 79 mg. In addition, the pH in “pH of the salt solutions” was 3.02.
On to `CCCN(CCC)CC(=O)O[C@H]1C[C@]2(C)[C@@H](C(C)=O)CC[C@H]2[C@@H]2CC[C@H]3C[C@H](O)CC[C@]3(C)[C@H]21` [Example 154], for which the Dissolved aminoester in series [1] (setting [3]) turned out to be 91 mg. Also, the pH in “pH of the salt solutions” stood at 3.5.
Regarding `CC(=O)[C@H]1CC[C@H]2[C@@H]3CC[C@H]4C[C@H](O)CC[C@]4(C)[C@H]3[C@@H](OC(=O)CN3CCCC3)C[C@]12C` [Example 155], the Dissolved aminoester in series [1] (setting [3]) is recorded as 87.7 mg. Also, the pH in the series “pH of the salt solutions” is on record as 3.45.
With `CC(=O)[C@H]1CC[C@H]2[C@@H]3CC[C@H]4C[C@H](O)CC[C@]4(C)[C@H]3[C@@H](OC(=O)CN3CCCCC3)C[C@]12C` [Example 156], the Dissolved aminoester in series [1] (setting [3]) came to 90.3 mg. In addition, in the series “pH of the salt solutions”, the pH came out at 3.52.
Regarding `CC(=O)[C@H]1CC[C@H]2[C@@H]3CC[C@H]4C[C@H](O)CC[C@]4(C)[C@H]3[C@@H](OC(=O)CN3CCCC(C)C3)C[C@]12C` (stereo partly drawn) [Example 157], the Dissolved aminoester in series [1] (setting [3]) was found to be 95 mg. Besides, the pH in the series “pH of the salt solutions” was 3.59.
Take `CC(=O)[C@H]1CC[C@H]2[C@@H]3CC[C@H]4C[C@H](O)CC[C@]4(C)[C@H]3[C@@H](OC(=O)CN3CCC(C)CC3)C[C@]12C` [Example 158]: the Dissolved aminoester in series [1] (setting [3]) came out at 93.8 mg. In the series “pH of the salt solutions”, the pH is listed as 3.60.
In the same order, the values of `CC(=O)[C@H]1CC[C@H]2[C@@H]3CC[C@H]4C[C@H](O)CC[C@]4(C)[C@H]3[C@@H](OC(=O)CN3CCCCCC3)C[C@]12C` [Example 159] are 91.7 mg and 3.55.
In the case of `CC(=O)[C@H]1CC[C@H]2[C@@H]3CC[C@H]4C[C@H](O)CC[C@]4(C)[C@H]3[C@@H](OC(=O)CN3CC4CCC(CC4)C3)C[C@]12C` [Example 160], the Dissolved aminoester in series [1] (setting [4]) stood at 80.6 mg. For the same compound, the pH in the series “pH of the salt solutions” was 2.6.
Regarding `CCCN(CCC)CC(=O)O[C@H]1C[C@]2(C)[C@@H](C(C)=O)CC[C@H]2[C@@H]2CC[C@H]3C[C@H](O)[C@@H](C)C[C@]3(C)[C@H]21` [Example 161], the Dissolved aminoester in series [1] (setting [4]) amounted to 78 mg. Moreover, the pH in the series “pH of the salt solutions” worked out at 2.8.
Regarding `CC(=O)C1CCC2C3CCC4CC(O)CCC4(C)C3C(OC(=O)CNC(C)CC(C)C)CC12C` (stereo not drawn) [Example 162], the Dissolved aminoester in series [1] (setting [2]) came out at 86 mg. Also, the pH in the series “pH of the salt solutions” was 3.0.
As to `CC(=O)C1CCC2C3CCC4CC(O)CCC4(C)C3C(OC(=O)CNC(C)CC(C)C)CC12C` (stereo not drawn) [Example 163], the Dissolved aminoester in series [1] (setting [2]) is given as 68 mg. For the same compound, the pH in the series “pH of the salt solutions” is listed as 3.08.
In the case of `CCOC1CC2(C)C(CCC3C4CCC(C(C)=O)C4(C)CC(OC(=O)CN4CCC(C)CC4)C32)CC1O` (stereo not drawn) [Example 164], in series [1] (setting [5]), the Dissolved aminoester came out at 103.5 mg. In addition, the pH in “pH of the salt solutions” turned out to be 3.72.
Regarding `CCOC1CC2(C)C(CCC3C4CCC(C(C)=O)C4(C)CC(OC(=O)CNCCC(C)C)C32)CC1O` (stereo not drawn) [Example 165], the Dissolved aminoester in series [1] (setting [6]) was 76.5 mg. Further, in the series “pH of the salt solutions”, the pH stood at 3.68.
On to `CCOC1CC2(C)C(CCC3C4CCC(C(C)=O)C4(C)CC(OC(=O)CNC(C)CC(C)C)C32)CC1O` (stereo not drawn) [Example 166], for which the Dissolved aminoester in series [1] (setting [2]) was 104 mg. The pH in the series “pH of the salt solutions” is given as 3.28.
In the case of `CCN(CC)CC(=O)OC1CC2(C)C(C(C)=O)CCC2C2CCC3CC(O)C(OC(C)C)CC3(C)C12` (stereo not drawn) [Example 167], the Dissolved aminoester in series [1] (setting [6]) came to 93 mg. For the same compound, in “pH of the salt solutions”, the pH was 3.65.
With `CCCCOC1CC2(C)C(CCC3C4CCC(C(C)=O)C4(C)CC(OC(=O)CN(C)CCCC)C32)CC1O` (stereo not drawn) [Example 168], in series [1] (setting [2]), the Dissolved aminoester is 70.5 mg. The pH in the series “pH of the salt solutions” came to 2.4.
Take `CCCCOC1CC2(C)C(CCC3C4CCC(C(C)=O)C4(C)CC(OC(=O)CN4CCC(C)CC4)C32)CC1O` (stereo not drawn) [Example 169]: the Dissolved aminoester in series [1] (setting [2]) is 80.5 mg. Further, the pH in the series “pH of the salt solutions” is 2.8.
`CCCCN(C)CC(=O)OC1CC2(C)C(C(C)=O)CCC2C2CCC3CC(O)C(OC(C)=O)CC3(C)C12` (stereo not drawn) [Example 170]: the Dissolved aminoester in series [1] (setting [5]) is given as 104 mg. In addition, the pH in “pH of the salt solutions” amounted to 3.7.
Regarding `CCN(CC)CC(=O)O[C@H]1C[C@]2(C)[C@@H](C(C)=O)CC[C@H]2[C@@H]2C[C@@H](C)[C@H]3C[C@H](O)CC[C@]3(C)[C@H]21` [Example 171], the Dissolved aminoester in series [1] (setting [5]) was 100 mg. The pH in “pH of the salt solutions” is listed as 3.4.
Take `CCN(CC)CC(=O)OC1CC2(C)C(C(=O)COC)CCC2C2CCC3CC(O)CCC3(C)C12` (stereo not drawn) [Example 172]: the Dissolved aminoester in series [1] (setting [5]) amounted to 100 mg. For the same compound, the pH in the series “pH of the salt solutions” was 3.2.
Consider `CCN(CC)CC(=O)OC1CC2(C)C(C(C)=O)CCC2C2CCC3CC(O)C(C)CC3(C)C12` (stereo not drawn) [Example 173], for which, in series [1] (setting [2]), the Dissolved aminoester was found to be 78 mg. For the same compound, the pH in “pH of the salt solutions” is listed as 2.82.
